Test results from PubChem BioAssay AID652047 (Broad Institute, 2013).
The source made the active and inactive calls.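 The calls were made as follows: active = fitted curve reaches activity change of -35% signal drop at a concentration below twice the top valid tested dose; inactive = the rest, including activity in the opposite direction.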

Test system: P. falciparum 3D7 in RBCs, SYBR Green DNA fluorescence
Assay: growth inhibition of P. falciparum 3D7, dose response, 3D7 strain, red blood cells, SYBR Green, cherry-picked (AID 652047);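 as to activity change, negative = inhibition: 0% = untreated neutral control wells and -100% = mefloquine positive control wells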
Details: not given
With Cc1ccc2c(C)c3ccc4ccccc4c3c[n+]2c1 the AC35 was 0.0368 µM. In the case of O=C(Nc1nc(-c2ccccn2)cs1)c1ccc(Br)s1, the AC35 is reported as 0.663 µM. Work on O=C(OCC(=O)C12CC3CC(CC(C3)C1)C2)c1ccc(O)cc1 yielded an AC35 of 44.4 µM. O=[N+]([O-])c1cccc(C=NNc2ccc3ccccc3n2)c1O showed an AC35 of 4.23 µM. In the case of O=S1OC(c2ccccc2)c2cc(Cl)ccc21 (configuration not stated), the AC35 is reported as 11.3 µM. CC(C)(C)n1nc(Cc2cccc3ccccc23)c2c(N)ncnc21 gave an AC35 of 25.7 µM. COc1ccc(-c2oc3ccccc3c2C#Cc2cncn2C)cc1 gave an AC35 of 0.603 µM. With CC(C)=CCc1c(O)ccc(C(=O)Cc2ccccc2)c1O the AC35 was 16.4 µM. Compound Cc1c(C2(O)CCCCC2)[nH]c2ccc(C(F)(F)F)cc12 has an AC35 of 27.4 µM. With O=C(Nc1nnc(-c2cccs2)o1)c1cccc(Oc2ccccc2)c1 the AC35 was 23 µM. Compound Cc1cc(Cl)ccc1C(=O)C1CCCN(C(=O)c2cncs2)C1 (configuration not stated) has an AC35 of 26 µM. With Cc1cc(/C=C2\SC(=S)N(C)C2=O)c(C)n1-c1ccc(O)cc1 the AC35 was 10.8 µM. Compound CCC(C)Sc1cccc(-c2nc3ccccn3c2NCc2ccccc2)c1 (configuration not stated) has an AC35 of 16.8 µM. With C[C@@]12CCC3[C@@](CCC4[C@@]3(C)CCC[C@@]4(C)C(=O)NCc3ccccc3)(CC1=O)C2 (some centres not stated) the AC35 was 30.2 µM. For O=C(CSc1ccc(-c2ccccn2)nn1)c1ccccc1, the AC35 was 20 µM. Compound Cc1ccc(NC(=S)c2nc3ccccc3[nH]2)c(C)c1 has an AC35 of 5.34 µM. Compound C=CCn1c(-c2cc(-c3ccc(C)cc3)nc3ccccc23)n[nH]c1=S has an AC35 of 15.5 µM. CCCCCCC(Cl)(Cn1ccnc1)c1ccccc1 (configuration not stated) gave an AC35 of 4.06 µM. In the case of Oc1c(I)cc(Cl)c2cccnc12, the AC35 is reported as 2.33 µM. COc1ccc2oc(=O)c(-c3csc(Nc4cccc(O)c4)n3)cc2c1 gave an AC35 of 15.7 µM. Compound CCCCC(=O)NC(c1ccco1)c1cc(Cl)c2cccnc2c1O (configuration not stated) has an AC35 of 1.48 µM. Cc1nc(-c2ccccn2)nc(N(C)c2ccccc2)c1Cl gave an AC35 of 3.26 µM. With CC(/C=N/n1c(COc2ccccc2)n[nH]c1=S)=C\c1ccccc1 the AC35 was 37.3 µM. Compound COc1ccc2[nH]c(=O)c(CN(Cc3cccnc3)C(=O)Nc3ccccc3)cc2c1 has an AC35 of 17.5 µM. CC(=O)NC(c1cccc([N+](=O)[O-])c1)c1ccc2cccnc2c1O (configuration not stated) showed an AC35 of 2 µM. For O=C1OCC(CO)(CO)N=C1NNc1ccc(Cl)c(Cl)c1, the AC35 was 19.1 µM. Work on Cc1ccc(O)c(C2=NNC(c3ccc(Cl)cc3)C2)c1 (configuration not stated) yielded an AC35 of 4.31 µM. O=S(=O)(Nc1ccccc1)c1ccc(Oc2ncc(C(F)(F)F)cc2Cl)cc1 gave an AC35 of 28.7 µM. Compound O/N=C(\c1ccc(Cl)cc1)c1cc2ccccc2o1 has an AC35 of 8.56 µM. Work on CCCCOC(=O)/C=C/c1ccc(OC(=O)OC)c(OC(=O)OC)c1 yielded an AC35 of 14.7 µM. With COc1ccc(O)c(C(=O)CC(=O)c2ccc(F)cc2)c1 the AC35 was 16.1 µM. For NC(=Nc1nc(-c2ccccn2)cc2ccccc12)c1ccccn1, the AC35 was 0.0527 µM. In the case of Oc1ccccc1-c1cc(-c2ccc3c(c2)OCCO3)n[nH]1, the AC35 is reported as 15.2 µM. With O=c1c2ccccc2c(-c2ccc(O)cc2)nn1-c1cccc(C(F)(F)F)c1 the AC35 was 5.55 µM. Compound COc1cnc(-c2ccccn2)nc1Sc1ccccc1 has an AC35 of 4.67 µM. COC(=O)C1=C(C)NC(C)=C(C(=O)OCC(C)C)C1c1ccccc1[N+](=O)[O-] (configuration not stated) gave an AC35 of 4.78 µM. CCCCCCCCCCOC(=O)Cn1c(COc2ccccc2OC)[n+](C)c2ccccc21 gave an AC35 of 0.401 µM. Compound O=C(NOC(=O)c1ccccc1)c1ccccc1 has an AC35 of 20.9 µM. Compound Cc1ccoc1C(=O)Nc1cccc(Oc2ccccc2)c1 has an AC35 of 10.4 µM. For CCCCC(=O)NC(=S)NNC(=O)CCc1ccccc1, the AC35 was 20.8 µM. For CC1CCN(c2nc(-c3ccncc3)nc3ccccc23)CC1, the AC35 was 4.32 µM. With O=S(=O)(c1ccc(Cl)cc1)N1CCC2(CC1)OCCN2S(=O)(=O)c1cccs1 the AC35 was 24.8 µM. In the case of CC(C)(C)C(O)C(Cc1ccccc1Cl)n1cncn1 (configuration not stated), the AC35 is reported as 25.7 µM. With c1ccc(C(=NNc2nc3ccccc3s2)c2ccccn2)cc1 the AC35 was 1.5 µM. With CCCn1nc(C(=O)N2CCN(S(=O)(=O)c3ccc(C)c(C)c3)CC2)c2ccccc2c1=O the AC35 was 11.7 µM. With c1ccc(-c2ccc(SCc3cccnc3)nn2)nc1 the AC35 was 33.1 µM. With Nc1cc2nc3ccccc3oc-2cc1=O the AC35 was 2.14 µM. COc1cc(NS(=O)(=O)c2ccc(C)cc2)c2ncccc2c1 gave an AC35 of 6.47 µM. For CC1(C)C2CCC1(C)C(OC(=O)c1ccc(O)cc1)C2 (configuration not stated), the AC35 was 12.2 µM. OCCN(CCO)c1cc2c3ccccc3ccc2c2ccccc12 showed an AC35 of 1.69 µM. With Nc1cc2c3ccccc3ccc2c2ccccc12 the AC35 was 1.01 µM. For CC(=O)Nc1cccc(NC(=O)CSc2ccc(-c3ccccn3)nn2)c1, the AC35 was 14 µM. In the case of Cc1cccc(NC(=S)NC(C)CCc2ccccc2)c1 (configuration not stated), the AC35 is reported as 5.69 µM. Compound Oc1c(C(Nc2cccc(C(F)(F)F)c2)c2ccncc2)ccc2cccnc12 (configuration not stated) has an AC35 of 0.879 µM. Work on CCn1c2ccc(C)cc2c2nc3cc(C(=O)O)ccc3nc21 yielded an AC35 of 42.6 µM. With O=P(Nc1cccnc1)(Oc1ccccc1Cl)Oc1ccccc1Cl the AC35 was 40.7 µM. Work on O=C(c1ccccc1)c1coc2c1C(=O)c1ccccc1C2=O yielded an AC35 of 3.82 µM. In the case of CC1=CC(=O)C=C(C)C1=NOS(=O)(=O)c1ccccc1, the AC35 is reported as 17.4 µM. Cc1ccc(Cl)cc1NC1=C/C(=N\S(=O)(=O)c2cccs2)c2ccccc2C1=O showed an AC35 of 0.0436 µM. For CCOC(=O)N1C(=O)C2(CCCCC2)N(c2ccccc2Cl)C1=S, the AC35 was 12.8 µM. COc1cc(/C=N/O)cc(Br)c1OCc1cccc(Cl)c1 gave an AC35 of 29.6 µM. With O=c1c2ccccc2nc(-c2cccc(Cl)c2)n1O the AC35 was 25.4 µM. Work on Clc1nc(-c2ccccn2)nc2scc(-c3ccccc3)c12 yielded an AC35 of 2.34 µM. With CCCCCCSc1ccc(-c2nc3ccccn3c2NCCCC)cc1 the AC35 was 12.2 µM. In the case of CC(C)C(=O)NC(c1ccco1)c1ccc2cccnc2c1O (configuration not stated), the AC35 is reported as 2.02 µM. Compound O=C(NCC1CC1(Cl)Cl)Nc1ccc(Cl)c(Cl)c1 (configuration not stated) has an AC35 of 8.82 µM. For CN(c1ccccc1)c1nc(N2CCCC2)nc(-n2ccnc2)n1, the AC35 was 9.8 µM. COc1ccc(Sc2nc(-c3ccccn3)ncc2OC)cc1 gave an AC35 of 1.26 µM. Compound O=C(Nc1cc(Oc2ccc(Cl)cc2)cc([N+](=O)[O-])c1)c1ccco1 has an AC35 of 6.1 µM. CCCCNc1c(-c2cccc(-c3ccc(OC)cc3)c2)nc2ccc(C)cn12 gave an AC35 of 2 µM. In the case of O=C(Nc1nnc(SCc2ccc(F)cc2)s1)c1ccccn1, the AC35 is reported as 2.17 µM. With Cc1nc(SCc2ccc(OCCC(C)C)cc2)n[nH]1 the AC35 was 16.5 µM. With Cc1c(C(=O)O)cccc1-c1ccc(/C=N/Nc2ccc(Br)cc2)o1 the AC35 was 20.2 µM. c1ccc(CSc2ccc(-c3ccccn3)nn2)nc1 showed an AC35 of 19 µM. CC[n+]1c(/C=C/C=C/c2ccc(N(C)C)cc2)sc2ccccc21 showed an AC35 of 6.28 µM. For O=c1cc(CSc2ccc(Cl)cc2)nc(-c2ccccn2)[nH]1, the AC35 was 1.93 µM. In the case of O=CC1=C(c2ccccc2)Oc2ccccc2O1, the AC35 is reported as 8.24 µM. Compound Cc1ccc(S(=O)(=O)Nc2ccc(O)c3cccnc23)cc1 has an AC35 of 7.02 µM. With CCCCNc1c(-c2ccc(-c3ccc(OC)cc3)c(OC)c2)nc2ccccn12 the AC35 was 5.67 µM. For O=C(CC1CC2CCC1C2)Nc1nc(-c2ccccn2)cs1 (configuration not stated), the AC35 was 2.94 µM. Work on Cc1ccc(NC2(c3nnnn3-c3c(C)cccc3C)CCCCC2)cc1 yielded an AC35 of 15.7 µM. For Oc1ccc(Br)cc1/C=N/Nc1ccccn1, the AC35 was 2.68 µM. With O=C(NC(=S)N(CCc1ccccc1)CCc1ccccc1)c1ccco1 the AC35 was 12 µM. O=Cc1cc(N=Nc2ccccc2Cl)ccc1O showed an AC35 of 2.77 µM. Compound CCC1=NN(C(=O)c2cccc(Br)c2)C(O)(c2ccc(Br)cc2)C1 (configuration not stated) has an AC35 of 14.7 µM. COc1ccc(-c2cc(C(=O)N3CCN(c4ccccc4F)CC3)c3ccccc3n2)c(OC)c1 showed an AC35 of 9.76 µM. For CCOC(=O)c1ccc(NC(=S)N(Cc2cccnc2)Cc2ccco2)cc1, the AC35 was 21.7 µM. In the case of Oc1cccc2ccc(Nc3ccccn3)nc12, the AC35 is reported as 0.182 µM. For COc1ccccc1-c1sc2cc3c(cc2c1C#Cc1cncn1C)OCO3, the AC35 was 2.48 µM. Compound C=C1C(=O)C23CCC4C(C)(C(=O)OC)CCCC4(C)C2CCC1(O)C3 (configuration not stated) has an AC35 of 1.99 µM. Work on Cc1nn(CCC#N)c(N)c1C1(O)C(=O)Nc2c(Cl)cc(Cl)cc21 (configuration not stated) yielded an AC35 of 16 µM. Work on C=CCc1ccc(O)c(-c2ccc(O)c(CC=C)c2)c1 yielded an AC35 of 15.8 µM. In the case of [O-][n+]1cccc2c(Br)cc(Br)c(O)c21, the AC35 is reported as 7.13 µM. With O=C(CSc1ccc(-c2ccccn2)nn1)NCc1ccc(F)cc1 the AC35 was 28.7 µM. COc1cc([N+](=O)[O-])cc(/C=N/NC(=O)c2cncc(Br)c2)c1O showed an AC35 of 11.7 µM. C=CCNC(=S)N1CCC(Cc2ccccc2)CC1 showed an AC35 of 43.5 µM. With COC(=O)c1cccc2c1-c1ccccc1/C2=N/O the AC35 was 34.7 µM. Compound C=CCOC(Cn1ccnc1)c1ccc(Cl)cc1Cl (configuration not stated) has an AC35 of 6.08 µM. With CC(C)C(=O)NC(c1cccc([N+](=O)[O-])c1)c1ccc2cccnc2c1O (configuration not stated) the AC35 was 1.01 µM. COc1cnc(-c2ccccn2)nc1N(C)c1ccccc1 gave an AC35 of 0.962 µM. Compound CCCCCCn1c(=O)c(C(=O)Nc2ncccc2C)c(O)c2ccccc21 has an AC35 of 2.57 µM. Compound Fc1ccc(CCNC(=S)Nc2ccc(F)c(Cl)c2)cc1 has an AC35 of 15.9 µM.

Test system: not listed separately
Assay: as above
Details: P. falciparum 3D7 in RBCs, SYBR Green DNA fluorescence; at 16 µM (top of the series)
For O/N=C/c1cc(Br)ccc1OCc1ccccc1F, the activity change, negative = inhibition was 13.1% (inactive).

Same assay, conditions: P. falciparum 3D7 in RBCs, SYBR Green DNA fluorescence; at 50 µM (top of the series)
For O=C(O)c1c(NC(=O)N2CCCC2)sc2c1CCCC2, the activity change, negative = inhibition was -4.69% (inactive). With O=C1Nc2c(Br)cccc2C1=O the activity change, negative = inhibition was -4.37% (inactive). For O=C(N/N=C/c1cc(Cl)cc([N+](=O)[O-])c1O)c1ccccc1NS(=O)(=O)c1cccs1, the activity change, negative = inhibition was 3.85% (inactive). With Clc1ccc(-c2n[nH]c3c2CCC3)cc1Cl the activity change, negative = inhibition was 19.2% (inactive). In the case of Cc1cc(NS(=O)(=O)c2ccc(C3CCCCC3)cc2)no1, the activity change, negative = inhibition is reported as 27.3% (inactive). For CCCOc1ccc2ccccc2c1/C=C1\SC(=O)NC1=O, the activity change, negative = inhibition was -22.2% (inactive). For COc1ccc(N(C(=O)c2ccncc2)S(=O)(=O)c2ccccc2)cc1, the activity change, negative = inhibition was -18.5% (inactive). In the case of COc1ccc(N(C(=O)c2ccncc2)S(=O)(=O)c2ccc(F)cc2)cc1, the activity change, negative = inhibition is reported as 38.9% (inactive). For Cc1cc(Nc2ccccc2)nn1C(=O)c1ccccc1, the activity change, negative = inhibition was -5.49% (inactive). For CCCn1c2ccccc2c2cc(C(=O)O)ccc21, the activity change, negative = inhibition was 17.1% (inactive). With CNc1cc(CSC)nc(SCc2ccc(Cl)cc2Cl)n1 the activity change, negative = inhibition was 14.7% (inactive). With CC1(C)CC(=O)C(N=Nc2ccc3ncsc3c2)=C(O)C1 the activity change, negative = inhibition was -15.1% (inactive). In the case of CCCC1CCC(c2ccc(/C(N)=N/O)cc2)CC1 (configuration not stated), the activity change, negative = inhibition is reported as -10.1% (inactive). In the case of COc1ccccc1C1CCN(C(=O)c2ccc(Cl)cc2)CC1, the activity change, negative = inhibition is reported as -15.2% (inactive).
